# From patent publication US8501713B2, “Drug combinations for the treatment of duchenne muscular dystrophy” (Summit Corporation PLC, priority 2007, dated 2013)
# Test system: Utrophin A promoter linked to a luciferase reporter gene
# Test: Luciferase reporter assay (murine H2K cells)
# Format: cell-based
# Settings: for Activity: luciferase reporter assay in murine H2K cells, classified relative to control; for activity at 10 µM: Mus musculus, H2K mdx, luciferase level relative to control, H2K/mdx/Utro A reporter cells, compound 10 μM final concentration, read-out: Activity
# Outline: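 Immortalized mdx mouse H2K myoblasts stably carrying a ~5 kb utrophin A promoter–luciferase construct, kept at 33° C, 10% CO2. After 24 hrs plating, compound added at 10 μM final for 48 hrs; luciferase light output read after in-situ lysis.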
Compound,Activity,activity at 10 µM [%]
c1csc(-c2nc3cc4ccccc4cc3[nH]2)c1 [Example 561],+++ (Between 301% and 400% relative to control),–
"CCN(CC)c1ccc(-c2nc3c(ccc4ccccc43)o2)cc1 [Example 146, N,N-diethyl-4-(naphtho[1,2-d]oxazol-2-yl)aniline]",–,201 to 300
"CCCC(=O)Nc1ccc2oc(-c3ccccc3Cl)nc2c1 [Example 229, N-(2-(2-chlorophenyl)benzo[d]oxazol-5-yl)butyramide]",–,301 to 400
"CCS(=O)(=O)c1ccc2oc(-c3ccc4c(c3)CCCC4)nc2c1 [Example 444, 5-(ethylsulfonyl)-2-(5,6,7,8-tetrahydronaphthalen-2-yl)benzo[d]oxazole]",–,301 to 400
"O=C(CC(F)(F)F)Nc1ccc2oc(-c3ccccc3)cc2c1 [Example 408, 2-phenyl-5-(3′,3′,3′-trifluoropropanamido)benzofuran]",–,< 200
CCC(=O)Nc1cccc(-c2nc3cc(C)ccc3o2)c1 [Example 644],+++ (Between 301% and 400% relative to control),–
CC(C)C(=O)Nc1ccc(-c2nc3ccccc3s2)cc1 [Example 651],+++ (Between 301% and 400% relative to control),–
"CCN(CC)c1ccc(-c2nc3cc(NC(=O)c4ccc(-c5ccccc5)cc4)ccc3o2)cc1 [Example 72, N-(2-(4-(diethylamino)phenyl)benzo[d]oxazol-5-yl)biphenyl-4-carboxamide]",–,< 200
"O=C(Nc1ccc2oc(-c3ccc4ccccc4c3)nc2c1)c1cccs1 [Example 385, N-(2-(naphthalen-2-yl)benzo[d]oxazol-5-yl)thiophene-2-carboxamide]",–,< 200
"NC(=O)c1ccc2oc(-c3ccc(Cl)cc3)nc2c1 [Example 264, 2-(4-chlorophenyl)benzo[d]oxazole-5-carboxamide]",–,> 401
COc1ccc(-c2nc3ccccc3[nH]2)cc1 [Example 470],++ (Between 201% and 300% relative to control),–
"CC(C)C(=O)Nc1ccc2oc(-c3ccc(Cl)cc3Cl)nc2c1 [Example 257, N-(2-(2,4-dichlorophenyl)benzo[d]oxazol-5-yl)isobutyramide]",–,< 200
"COc1ccc(-c2nc3cc(NC(=O)c4ccncc4)ccc3o2)cc1 [Example 134, N-(2-(4-methoxyphenyl)benzo[d]oxazol-5-yl)isonicotinamide]",–,< 200
"O=C(Nc1ccc2oc(-c3cccnc3)nc2c1)c1ccc(Cl)c(Cl)c1 [Example 45, 3,4-dichloro-N-(2-(pyridin-3-yl)benzo[d]oxazol-5-yl)benzamide]",–,< 200
"O=C(Nc1ccc(-c2nc3cc(Cl)ccc3o2)cc1)c1cccs1 [Example 319, N-(4-(5-chlorobenzo[d]oxazol-2-yl)phenyl)thiophene-2-carboxamide]",–,< 200
"CC(C)CN(C)c1ccc2oc(-c3ccc(Cl)cc3)nc2c1 [Example 322, 2-(4-chlorophenyl)-N-isobutyl-N-methylbenzo[d]oxazol-5-amine]",–,< 200
"CC(C)C(=O)Nc1ccc2sc(-c3ccccc3)nc2c1 [Example 267, N-(2-phenylbenzo[d]thiazol-5-yl)isobutyramide]",–,> 401
"Nc1ccc2sc(-c3ccc(Cl)cc3)nc2c1 [Example 276, 2-(4-chlorophenyl)benzo[d]thiazol-5-amine]",–,> 401
Nc1ccc2oc(-c3ccccc3F)nc2c1 [Example 569],+++ (Between 301% and 400% relative to control),–
CNS(=O)(=O)c1ccc2nc(NC(=O)c3cccs3)sc2c1 [Example 687],++ (Between 201% and 300% relative to control),–

Compound,Activity,activity at 10 µM [%]
"Clc1ccc2oc(-c3ccccc3)nc2c1 [Example 111, 5-chloro-2-phenylbenzo[d]oxazole]",–,201 to 300
"Cc1ccc(-c2nc3ccc(N)cc3o2)cc1 [Example 237, 2-p-tolylbenzo[d]oxazol-6-amine]",–,> 401
"O=C(Cc1ccccc1)Nc1ccc2oc(Cc3ccccc3)nc2c1 [Example 165, N-(2-benzylbenzo[d]oxazol-5-yl)-2-phenylacetamide]",–,< 200
"COC(=O)c1ccc(-c2ccc3oc(-c4ccc(Cl)cc4)nc3c2)cc1 [Example 287, methyl 4-(2-(4-chlorophenyl)benzo[d]oxazol-5-yl)benzoate]",–,< 200
CC(=O)Nc1ccc(-c2nc3cc(C)cc(C)c3o2)cc1 [Example 529],++ (Between 201% and 300% relative to control),–
Cc1ccc2[nH]c(-c3ccccc3N)nc2c1 [Example 554],+++ (Between 301% and 400% relative to control),–
"CCCC(=O)Nc1ccc2oc(-c3ccc(C)cc3)nc2c1 [Example 116, N-(2-p-tolylbenzo[d]oxazol-5-yl)butyramide]",–,> 401
O=C(Nc1cccc(-c2nc3ccccc3[nH]2)c1)c1ccccc1 [Example 464],+ (Up to 200% relative to control),–
"CC(=O)Nc1ccc(-c2nc3cc(-c4ccc(Cl)cc4)ccc3o2)cc1 [Example 372, N-(4-(5-(4-chlorophenyl)benzo[d]oxazol-2-yl)phenyl)acetamide]",–,< 200
"Cn1c(COc2ccc(Cl)cc2)nc2ccccc21 [Example 3, 2-((4-chlorophenoxy)methyl)-1-methyl-1H-benzo[d]imidazole]",–,301 to 400
c1ccc2nc(-c3nc4ccccc4s3)ccc2c1 [Example 639],+++ (Between 301% and 400% relative to control),–
"CN[C@@H](C)C(=O)Nc1ccc2oc(-c3ccc(Cl)cc3)nc2c1 [Example 377, (S)-N-(2-(4-chlorophenyl)benzo[d]oxazol-5-yl)-2-(methylamino)propanamide]",–,301 to 400
"CC(C)C(=O)Nc1ccc2oc(-c3ccc4ccccc4n3)nc2c1 [Example 416, N-(2-(quinolin-2-yl)benzo[d]oxazol-5-yl)isobutyramide]",–,> 401
Cc1ccc(-c2nc3cc(N)ccc3o2)c(Cl)c1 [Example 527],++ (Between 201% and 300% relative to control),–
"CCN(CC)c1ccc(-c2nc3cc(-c4ccccc4)ccc3o2)cc1 [Example 145, N,N-diethyl-4-(5-phenylbenzo[d]oxazol-2-yl)aniline]",–,< 200
"CCS(=O)(=O)c1ccc2oc(C3CCCCC3)nc2c1 [Example 392, 2-cyclohexyl-5-(ethylsulfonyl)benzo[d]oxazole]",–,< 200
"COc1ccc(C(=O)Nc2ccc3oc(-c4ccccc4)nc3c2)cc1 [Example 25, 4-methoxy-N-(2-phenylbenzo[d]oxazol-5-yl)benzamide]",–,< 200
Cc1ccc2[nH]c(-c3sc4nc(C)ccc4c3N)nc2c1 [Example 632],++++ (Above 401% relative to control),–
"CC(C)C(=O)Nc1ccc2oc(-c3cccc(N(C)C)c3)nc2c1 [Example 204, N-(2-(3-(dimethylamino)phenyl)benzo[d]oxazol-5-yl)isobutyramide]",–,> 401
Cc1ccc(-c2nc3cc(N)ccc3o2)cc1Cl [Example 526],++ (Between 201% and 300% relative to control),–

Compound,Activity,activity at 10 µM [%]
"COc1ccccc1C(=O)Nc1ccc2oc(-c3ccccc3)nc2c1 [Example 26, 2-methoxy-N-(2-phenylbenzo[d]oxazol-5-yl)benzamide]",–,< 200
"CC(=O)Nc1ccc(-c2nc3ccc(Cl)cc3o2)cc1 [Example 332, N-(4-(6-chlorobenzo[d]oxazol-2-yl)phenyl)acetamide]",–,301 to 400
"CCCCC(=O)Nc1ccc2oc(-c3ccc(C(F)(F)F)cc3)nc2c1 [Example 126, N-(2-(4-(trifluoromethyl)phenyl)benzo[d]oxazol-5-yl)pentanamide]",–,< 200
"O=C(Nc1ccc2oc(-c3ccc(Cl)cc3)nc2c1)c1cccs1 [Example 103, N-(2-(4-chlorophenyl)benzo[d]oxazol-5-yl)thiophene-2-carboxamide]",–,< 200
COc1ccc(-c2nc3ccccc3s2)cc1N [Example 597],+++ (Between 301% and 400% relative to control),–
"Cc1cc(NC(=O)c2ccc(F)cc2F)c(OC(=O)c2ccc(F)cc2F)cc1C [Example 238, 2-(2,4-difluorobenzamido)-4,5-dimethylphenyl 2,4-difluorobenzoate]",–,< 200
"CC(C)C(=O)Nc1ccc2oc(Cc3ccccc3)nc2c1 [Example 228, N-(2-benzylbenzo[d]oxazol-5-yl)isobutyramide]",–,< 200
C(=C\c1nc2ccccc2[nH]1)/c1ccccc1 [Example 547],+++ (Between 301% and 400% relative to control),–
O=C(Nc1ccc(-c2nc3ccccc3s2)cc1)C1CCCO1 (stereo not shown) [Example 680],++ (Between 201% and 300% relative to control),–
c1ccc(OCc2nc3ccccc3s2)cc1 [Example 633],+++ (Between 301% and 400% relative to control),–
"O=[N+]([O-])c1ccc2nc(-c3ccccc3O)[nH]c2c1 [Example 106, 2-(6-nitro-1H-benzo[d]imidazol-2-yl)phenol]",–,< 200
CCn1c(C)nc2cc(C(=O)Nc3ccccc3)ccc21 [Example 615],++++ (Above 401% relative to control),–
"CCCCC(=O)Nc1ccc2oc(-c3cccnc3)nc2c1 [Example 55, N-(2-(pyridin-3-yl)benzo[d]oxazol-5-yl)pentanamide]",–,< 200
CNC(=O)Nc1ccc2nc(C)oc2c1 [Example 467],+ (Up to 200% relative to control),–
"O=C(Nc1ccc2oc(-c3ccc(Cl)cc3)nc2c1)c1ccncc1 [Example 87, N-(2-(4-chlorophenyl)benzo[d]oxazol-5-yl)isonicotinamide]",–,< 200
Cc1ccc2oc(-c3cccs3)nc2c1 [Example 612],++ (Between 201% and 300% relative to control),–
"COCCC(=O)Nc1ccc2oc(-c3ccc(C)cc3)nc2c1 [Example 160, 3-methoxy-N-(2-p-tolylbenzo[d]oxazol-5-yl)propanamide]",–,> 401
"O=C(Nc1ccc2oc(-c3ccccc3)nc2c1)c1ccc(-c2ccccc2)cc1 [Example 32, N-(2-phenylbenzo[d]oxazol-5-yl)biphenyl-4-carboxamide]",–,< 200
